From PubChem BioAssay (NCI)
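Cells were grown in 96-well plates and exposed to each compound for 48 hours at five concentrations; endpoints were interpolated linearly between bracketing concentrations, or set to the highest concentration if not reached. Definition used: TGI = concentration required for complete inhibition of growth.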

Assays:
Experiment in all cases: NCI tumour cell line growth inhibition, 48 h
[1] = tested on: DU-145 prostate
[2] = tested on: MOLT-4 leukemia
[3] = tested on: A498 renal
[4] = tested on: MDA-N
[5] = tested on: IGROV1 ovarian
[6] = tested on: NCI/ADR-RES ovarian
[7] = tested on: TK-10 renal
[8] = tested on: SN12C renal
[9] = tested on: EKVX NSCLC
[10] = tested on: SF-539 CNS
[11] = tested on: OVCAR-3 ovarian
[12] = tested on: A549 NSCLC
[13] = tested on: HOP-92 NSCLC
[14] = tested on: SK-OV-3 ovarian
[15] = tested on: T-47D breast
[16] = tested on: SNB-75 CNS
[17] = tested on: UACC-257 melanoma
[18] = tested on: RPMI-8226 leukemia
[19] = tested on: HT29 colon
[20] = tested on: SW-620 colon
[21] = tested on: CAKI-1 renal
[22] = tested on: COLO 205 colon
[23] = tested on: UACC-62 melanoma
[24] = tested on: BT-549 breast
[25] = tested on: ACHN renal
[26] = tested on: SK-MEL-2 melanoma
[27] = tested on: PC-3 prostate
[28] = tested on: NCI-H522 lung
[29] = tested on: HL-60(TB) leukemia
[30] = tested on: NCI-H460 lung
[31] = tested on: HS 578T breast
[32] = tested on: SF-268 CNS
[33] = tested on: HCT-15 colon
[34] = tested on: 786-0 renal
[35] = tested on: OVCAR-8 ovarian
[36] = tested on: KM12 colon
[37] = tested on: OVCAR-4 ovarian
[38] = tested on: RXF 393 renal
[39] = tested on: SK-MEL-5 melanoma
[40] = tested on: M14 melanoma
[41] = tested on: NCI-H23 lung
[42] = tested on: HCT-116 colon
[43] = tested on: UO-31 renal
[44] = tested on: MCF7 breast
[45] = tested on: SF-295 CNS
[46] = tested on: LOX IMVI melanoma
[47] = tested on: NCI-H226 lung
[48] = tested on: U251 CNS
[49] = tested on: MDA-MB-231 breast
[50] = tested on: MDA-MB-435
[51] = tested on: CCRF-CEM leukemia
[52] = tested on: OVCAR-5 ovarian
[53] = tested on: SR leukemia
[54] = tested on: SNB-19 CNS
[55] = tested on: SK-MEL-28 melanoma
[56] = tested on: HOP-62 NSCLC
[57] = tested on: MALME-3M melanoma
[58] = tested on: HCC-2998 colon
[59] = tested on: K-562 leukemia

Which TGI [1] does the source give for COc1ccc(N)c(C(O)CCNC(C)=O)c1 (configuration not stated) here?
Its TGI is > 100 µM.

And the TGI [2]?
Its TGI is > 100 µM.

What about the TGI [3] of the same compound?
The TGI was > 100 µM.

What about the TGI [4] of the same compound?
The TGI was > 100 µM.

And the TGI [5]?
The TGI was > 100 µM.

And the TGI [6]?
Its TGI is > 100 µM.

What about the TGI [7] of the same compound?
Its TGI is > 100 µM.

And the TGI [8]?
The TGI was > 100 µM.

What about the TGI [9] of the same compound?
The TGI was > 100 µM.

What about the TGI [10] of the same compound?
The TGI was > 100 µM.

And the TGI [11]?
The TGI was > 100 µM.

And the TGI [12]?
Its TGI is > 100 µM.

And the TGI [13]?
The TGI was > 100 µM.

What about the TGI [14] of the same compound?
Its TGI is > 100 µM.

And the TGI [15]?
Its TGI is > 100 µM.

What about the TGI [16] of the same compound?
The TGI was > 100 µM.

What about the TGI [17] of the same compound?
Its TGI is > 100 µM.

And the TGI [18]?
Its TGI is > 100 µM.

And the TGI [19]?
Its TGI is > 100 µM.

What about the TGI [20] of the same compound?
The TGI was > 100 µM.

What about the TGI [21] of the same compound?
The TGI was > 100 µM.

And the TGI [22]?
The TGI was > 100 µM.

And the TGI [23]?
Its TGI is > 100 µM.

And the TGI [24]?
The TGI was > 100 µM.

What about the TGI [25] of the same compound?
Its TGI is > 100 µM.

And the TGI [26]?
Its TGI is > 100 µM.

And the TGI [27]?
Its TGI is > 100 µM.

What about the TGI [28] of the same compound?
The TGI was > 100 µM.

What about the TGI [29] of the same compound?
Its TGI is > 100 µM.

What about the TGI [30] of the same compound?
The TGI was > 100 µM.

And the TGI [31]?
The TGI was > 100 µM.

What about the TGI [32] of the same compound?
The TGI was > 100 µM.

And the TGI [33]?
The TGI was > 100 µM.

And the TGI [34]?
Its TGI is > 100 µM.

And the TGI [35]?
Its TGI is > 100 µM.

What about the TGI [36] of the same compound?
Its TGI is > 100 µM.

What about the TGI [37] of the same compound?
Its TGI is > 100 µM.

And the TGI [38]?
Its TGI is > 100 µM.

What about the TGI [39] of the same compound?
Its TGI is > 100 µM.

And the TGI [40]?
The TGI was > 100 µM.

What about the TGI [41] of the same compound?
The TGI was > 100 µM.

What about the TGI [42] of the same compound?
The TGI was > 100 µM.

What about the TGI [43] of the same compound?
The TGI was > 100 µM.

And the TGI [44]?
Its TGI is > 100 µM.

What about the TGI [45] of the same compound?
Its TGI is > 100 µM.

And the TGI [46]?
Its TGI is > 100 µM.

What about the TGI [47] of the same compound?
Its TGI is > 100 µM.

What about the TGI [48] of the same compound?
The TGI was > 100 µM.

What about the TGI [49] of the same compound?
The TGI was > 100 µM.

And the TGI [50]?
Its TGI is > 100 µM.

What about the TGI [51] of the same compound?
The TGI was > 100 µM.

What about the TGI [52] of the same compound?
Its TGI is > 100 µM.

And the TGI [53]?
The TGI was > 100 µM.

And the TGI [54]?
Its TGI is > 100 µM.

For COc1ccc(-c2cc(-c3ccccc3)n(C3OCC(OC(C)=O)C(OC(C)=O)C3OC(C)=O)c(=S)c2C#N)cc1 (configuration not stated), which TGI [1] is on record?
The TGI was > 100 µM.

What about the TGI [2] of the same compound?
The TGI was > 100 µM.

What about the TGI [3] of the same compound?
Its TGI is > 100 µM.

What about the TGI [4] of the same compound?
The TGI was > 100 µM.

What about the TGI [5] of the same compound?
The TGI was > 100 µM.

What about the TGI [6] of the same compound?
Its TGI is > 100 µM.

And the TGI [7]?
The TGI was > 100 µM.

What about the TGI [8] of the same compound?
The TGI was > 100 µM.

And the TGI [9]?
The TGI was > 100 µM.

And the TGI [10]?
The TGI was > 100 µM.

What about the TGI [55] of the same compound?
The TGI was > 100 µM.

What about the TGI [11] of the same compound?
Its TGI is > 100 µM.

And the TGI [12]?
The TGI was > 100 µM.

And the TGI [13]?
The TGI was 53.6 µM.

What about the TGI [14] of the same compound?
The TGI was > 100 µM.

And the TGI [15]?
The TGI was > 100 µM.

And the TGI [16]?
Its TGI is > 100 µM.

What about the TGI [17] of the same compound?
Its TGI is > 100 µM.

What about the TGI [18] of the same compound?
Its TGI is > 100 µM.

And the TGI [19]?
The TGI was > 100 µM.

And the TGI [20]?
The TGI was > 100 µM.

And the TGI [21]?
Its TGI is > 100 µM.

And the TGI [22]?
The TGI was > 100 µM.

And the TGI [23]?
Its TGI is > 100 µM.

And the TGI [24]?
The TGI was > 100 µM.

And the TGI [25]?
Its TGI is > 100 µM.

And the TGI [26]?
The TGI was > 100 µM.

What about the TGI [27] of the same compound?
The TGI was > 100 µM.

And the TGI [28]?
Its TGI is > 100 µM.

What about the TGI [29] of the same compound?
Its TGI is > 100 µM.

What about the TGI [30] of the same compound?
The TGI was > 100 µM.

What about the TGI [31] of the same compound?
Its TGI is > 100 µM.

And the TGI [56]?
The TGI was > 100 µM.

And the TGI [32]?
Its TGI is > 100 µM.

And the TGI [33]?
The TGI was > 100 µM.

What about the TGI [35] of the same compound?
The TGI was > 100 µM.

And the TGI [36]?
Its TGI is > 100 µM.

And the TGI [37]?
Its TGI is > 100 µM.

What about the TGI [38] of the same compound?
Its TGI is > 100 µM.

What about the TGI [39] of the same compound?
The TGI was > 100 µM.

And the TGI [40]?
Its TGI is > 100 µM.

What about the TGI [57] of the same compound?
Its TGI is > 100 µM.

And the TGI [41]?
Its TGI is > 100 µM.

And the TGI [42]?
Its TGI is > 100 µM.

What about the TGI [43] of the same compound?
The TGI was > 100 µM.

What about the TGI [44] of the same compound?
The TGI was > 100 µM.

And the TGI [45]?
The TGI was > 100 µM.

And the TGI [46]?
Its TGI is > 100 µM.

What about the TGI [58] of the same compound?
Its TGI is > 100 µM.

And the TGI [47]?
The TGI was > 100 µM.

What about the TGI [48] of the same compound?
Its TGI is > 100 µM.

And the TGI [59]?
The TGI was > 100 µM.

What about the TGI [49] of the same compound?
The TGI was > 100 µM.

What about the TGI [50] of the same compound?
Its TGI is > 100 µM.

And the TGI [51]?
The TGI was > 100 µM.

What about the TGI [52] of the same compound?
The TGI was > 100 µM.

What about the TGI [53] of the same compound?
Its TGI is > 100 µM.

What about the TGI [54] of the same compound?
Its TGI is > 100 µM.
